Patent US5053336A, “Monoclonal antibodies for the separate detection of halodeoxyuridines and method for their use” (Regents of the University of California, priority 1989, dated 1991)
One block for each compound: values may come before it.

Tested on: monoclonal antibody Br-3 (IgG1, kappa; hybridoma ATCC deposit)
Test: competition ELISA (c-ELISA), specificity of antibody for halogenated deoxyuridines
Format: binding, mouse (SJL/Jax)
From the text: A competition enzyme-linked immunosorbent assay (c-ELISA) wa developed to assess the specificity of the antibody for halogenated deoxyuridines by the method of Stanker, et al. (1986) described previously. The competition ELISA data was normalized using 100% activity as the optical density in wells in which antibody was bound to the solid phase antigen (BSA-hapten) in the absence of any competitor. The test wells, each containing different amounts of competitor, were normalized to the 100% activity wells. Percent inhibition was calculated by subtracting the normalized percent binding activity from 100. A smaller I50 value indicates a higher relative affinity of the antibody for the compound. I50 values were estimated graphically from competition ELISA data. When 50% inhibition could not be attained, the value of the highest level of competitor tested is reported. Competition binding data for antibodies reactive with brominated nucleoside analogs are shown in FIG. 1, and the values represent the averages from at least 12 independent assays.
The concentration of IdUMP which causes a 50% binding inhibition to monoclonal antibody Br-3 is 100 times greater for IdUMP than with BrdUMP.

- concentration which causes a 50% binding inhibition (I50), relative to BrdUMP (I50 of IdUMP compared with I50 of BrdUMP, FIG. 1, averages of at least 12 assays): 100 times
Structure (SMILES): O=c1[nH]c(=O)n([C@H]2C[C@H](O)[C@@H](COP(=O)(O)O)O2)cc1I [IdUMP, 5-iodo-2'-deoxyuridine-5-monophosphate]

- IC50 (50% inhibition not attained at the highest level of competitor tested, read-out: concentration for 50% binding inhibition (I50)): > 100 µM
Structure (SMILES): Cc1cn([C@H]2C[C@H](O)[C@@H](COP(=O)(O)O)O2)c(=O)[nH]c1=O [dTMP, deoxythymidine-5-monophosphate]

Structure (SMILES): O=c1[nH]c(=O)n([C@H]2C[C@H](O)[C@@H](COP(=O)(O)O)O2)cc1F [fluorinated deoxyuridine analog, 5-fluoro-2'-deoxyuridine-5-monophosphate]
- Br-3 binding (competition ELISA) (compared with the iodinated analog, FIG. 1): comparable to that of the iodinated analog
